Test results as given in ChEMBL document CHEMBL4610120, “New Broad-Spectrum Antibiotics Containing a Pyrrolobenzodiazepine Ring with Activity against Multidrug-Resistant Gram-Negative Bacteria” (J Med Chem, 2020).
In brackets after ≈: the same amount, converted by molar mass.

Experiments:
Klebsiella pneumoniae [1] = test: Ratio of MIC for multidrug-resistant Klebsiella pneumoniae NCTC 13368 to MIC for multidrug-resistant Klebsiella pneumoniae NCTC 13368 in presence of efflux pump inhibitor PAbetaN; type: functional
Acinetobacter baumannii [2] = test: Antimicrobial activity against Acinetobacter baumannii ATCC 17978 by microdilution broth method; type: functional
Enterococcus faecalis = test: Antibacterial activity against vancomycin resistant Enterococcus faecalis NCTC 12201 by microdilution broth method; type: functional
Staphylococcus aureus [3] = test: Antibacterial activity against methicillin resistant Staphylococcus aureus NCTC 13616 by microdilution broth method; type: functional
Staphylococcus aureus [4] = test: Antibacterial activity against methicillin resistant Staphylococcus aureus NCTC 13277 by microdilution broth method; type: functional
Klebsiella pneumoniae [5] = test: Antimicrobial activity against multidrug-resistant Klebsiella pneumoniae 16 by microdilution broth method; type: functional
Klebsiella pneumoniae [6] = test: Antimicrobial activity against multidrug-resistant Klebsiella pneumoniae 46704 by microdilution broth method; type: functional
Klebsiella pneumoniae [7] = test: Antimicrobial activity against multidrug-resistant Klebsiella pneumoniae 51851 by microdilution broth method; type: functional
Escherichia coli [8] = test: Antimicrobial activity against multidrug-resistant Escherichia coli CFI_033_NDM by microdilution broth method; type: functional
Escherichia coli [9] = test: Antimicrobial activity against multidrug-resistant Escherichia coli CFI_160_KPC2 by microdilution broth method; type: functional
Escherichia coli [10] = test: Antimicrobial activity against multidrug-resistant Escherichia coli CFI_161_NDM_5_OXA_181 by microdilution broth method; type: functional
Escherichia coli [11] = test: Antimicrobial activity against multidrug-resistant Escherichia coli LEC001 by microdilution broth method; type: functional
Escherichia coli [12] = test: Antimicrobial activity against multidrug-resistant Escherichia coli 319238/UR by microdilution broth method; type: functional
Escherichia coli [13] = test: Antimicrobial activity against multidrug-resistant Escherichia coli NCTC 12923 by microdilution broth method; type: functional
Burkholderia multivorans [14] = test: Antimicrobial activity against multidrug-resistant Burkholderia multivorans C1576 by microdilution broth method; type: functional
Burkholderia multivorans [15] = test: Antimicrobial activity against multidrug-resistant Burkholderia multivorans C1962 by microdilution broth method; type: functional
[16] = Antimicrobial activity against multidrug-resistant Burkholderia cepacia complex CEP509 by microdilution broth method; type: functional
[17] = Antimicrobial activity against multidrug-resistant Burkholderia cepacia complex NCTC 10743 by microdilution broth method; type: functional
Klebsiella pneumoniae [18] = test: Antimicrobial activity against multidrug-resistant Klebsiella pneumoniae NCTC 13368 in presence of efflux pump inhibitor CCCP by microdilution broth method; type: functional
Klebsiella pneumoniae [19] = test: Antimicrobial activity against multidrug-resistant Klebsiella pneumoniae 16 in presence of efflux pump inhibitor CCCP by microdilution broth method; type: functional
Klebsiella pneumoniae [20] = test: Antimicrobial activity against multidrug-resistant Klebsiella pneumoniae NCTC 13368 in presence of efflux pump inhibitor PAbetaN by microdilution broth method; type: functional
Klebsiella pneumoniae [21] = test: Antimicrobial activity against multidrug-resistant Klebsiella pneumoniae 16 in presence of efflux pump inhibitor PAbetaN by microdilution broth method; type: functional
Klebsiella pneumoniae [22] = test: Antimicrobial activity against multidrug-resistant Klebsiella pneumoniae NCTC 13438 in presence of efflux pump inhibitor PAbetaN by microdilution broth method; type: functional
Acinetobacter baumannii [23] = test: Antimicrobial activity against multidrug-resistant Acinetobacter baumannii AYE in presence of efflux pump inhibitor PAbetaN by microdilution broth method; type: functional
Acinetobacter baumannii [24] = test: Antimicrobial activity against Acinetobacter baumannii ATCC 17978 in presence of efflux pump inhibitor PAbetaN by microdilution broth method; type: functional
Acinetobacter baumannii [25] = test: Antimicrobial activity against multidrug-resistant Acinetobacter baumannii NCTC 13424 in presence of efflux pump inhibitor PAbetaN by microdilution broth method; type: functional
Pseudomonas aeruginosa [26] = test: Antimicrobial activity against Pseudomonas aeruginosa PAO1 in presence of efflux pump inhibitor PAbetaN by microdilution broth method; type: functional
Pseudomonas aeruginosa [27] = test: Antimicrobial activity against Pseudomonas aeruginosa PAO1 in presence of membrane permeabilizer PMBN by microdilution broth method; type: functional
[28] = Ratio of MIC for Pseudomonas aeruginosa PAO1 to MIC for Pseudomonas aeruginosa PW1783 harboring MexAB-OprM mutant; type: functional
Klebsiella pneumoniae [29] = test: Ratio of MIC for multidrug-resistant Klebsiella pneumoniae 16 to MIC for multidrug-resistant Klebsiella pneumoniae 16 in presence of membrane permeabilizer PMBN; type: functional
Pseudomonas aeruginosa [30] = test: Ratio of MIC for Pseudomonas aeruginosa PAO1 to MIC for Pseudomonas aeruginosa PAO1 in presence of membrane permeabilizer PMBN; type: functional
DNA [31] = test: Stabilization of 5'-FAM-TAT-ATA-TAG-ATA-TTT-TTT-TAT-CTA-TAT-ATA-3'-TAMRA DNA (unknown origin) assessed as reduction in change in melting temperature at 1:1 to 5:1 ligand to DNA ratio measured after 3 hrs by FRET-based assay relative to control; type: ADME, nucleic-acid assay
DNA [32] = test: Stabilization of 5'-FAM-TAT-AGA-TAT-AGA-TAT-TTT-ATA-TCT-ATA-TCT-ATA-3'-TAMRA DNA (unknown origin) assessed as reduction in change in melting temperature at 1:1 to 5:1 ligand to DNA ratio measured after 3 hrs by FRET-based assay relative to control; type: ADME, nucleic-acid assay
[33] = Cytotoxicity against human WI38 cells assessed as cell viability at 20 uM measured after 24 hrs by MTT assay relative to control; type: cell-based, WI-38; details: read-out: Activity
[34] = Selectivity ratio of cytotoxicity against human WI38 cells to MIC for multidrug-resistant Pseudomonas aeruginosa NCTC 13437; type: toxicity, cell-based
[35] = Selectivity ratio of cytotoxicity against human WI38 cells to MIC for vancomycin resistant Enterococcus faecium NCTC 12204; type: toxicity, cell-based
[36] = Selectivity ratio of cytotoxicity against human WI38 cells to MIC for vancomycin resistant Enterococcus faecalis NCTC 12201; type: toxicity, cell-based
[37] = Selectivity ratio of cytotoxicity against human WI38 cells to MIC for methicillin resistant Staphylococcus aureus NCTC 13277; type: toxicity, cell-based
DNA gyrase = DNA gyrase (Staphylococcus aureus, UniProt P0A0K8+P20831); test: Inhibition of Staphylococcus aureus DNA gyrase using relaxed pNO1 as substrate by gel based fluorescence assay; type: protein-complex assay
[38] = biological target: T1, Protein RecA (Escherichia coli K-12) (UniProt P0A7G6); test: Induction of Escherichia coli K12 MG1655 recA promotor measured at 30 mins interval for 20 hrs by fluorescence assay relative to control; details: Escherichia coli str. K-12 substr. MG1655
T1 sequence (whole entry): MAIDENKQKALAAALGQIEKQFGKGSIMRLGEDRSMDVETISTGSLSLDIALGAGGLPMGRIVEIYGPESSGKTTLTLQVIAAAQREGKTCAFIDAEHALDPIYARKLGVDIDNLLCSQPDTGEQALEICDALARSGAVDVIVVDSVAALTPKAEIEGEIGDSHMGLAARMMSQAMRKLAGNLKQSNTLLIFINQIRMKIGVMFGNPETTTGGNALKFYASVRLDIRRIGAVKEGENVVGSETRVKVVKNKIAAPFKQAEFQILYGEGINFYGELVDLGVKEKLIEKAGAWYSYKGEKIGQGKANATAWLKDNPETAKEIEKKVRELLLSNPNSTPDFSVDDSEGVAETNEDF

Klebsiella pneumoniae [39] = test: Antimicrobial activity against Klebsiella pneumoniae M137K by microdilution broth method; type: functional
Klebsiella pneumoniae [40] = test: Antimicrobial activity against Klebsiella pneumoniae tnkp1_lr150124p14q189 by microdilution broth method; type: functional

Chain of DNA gyrase (P0A0K8 whole entry): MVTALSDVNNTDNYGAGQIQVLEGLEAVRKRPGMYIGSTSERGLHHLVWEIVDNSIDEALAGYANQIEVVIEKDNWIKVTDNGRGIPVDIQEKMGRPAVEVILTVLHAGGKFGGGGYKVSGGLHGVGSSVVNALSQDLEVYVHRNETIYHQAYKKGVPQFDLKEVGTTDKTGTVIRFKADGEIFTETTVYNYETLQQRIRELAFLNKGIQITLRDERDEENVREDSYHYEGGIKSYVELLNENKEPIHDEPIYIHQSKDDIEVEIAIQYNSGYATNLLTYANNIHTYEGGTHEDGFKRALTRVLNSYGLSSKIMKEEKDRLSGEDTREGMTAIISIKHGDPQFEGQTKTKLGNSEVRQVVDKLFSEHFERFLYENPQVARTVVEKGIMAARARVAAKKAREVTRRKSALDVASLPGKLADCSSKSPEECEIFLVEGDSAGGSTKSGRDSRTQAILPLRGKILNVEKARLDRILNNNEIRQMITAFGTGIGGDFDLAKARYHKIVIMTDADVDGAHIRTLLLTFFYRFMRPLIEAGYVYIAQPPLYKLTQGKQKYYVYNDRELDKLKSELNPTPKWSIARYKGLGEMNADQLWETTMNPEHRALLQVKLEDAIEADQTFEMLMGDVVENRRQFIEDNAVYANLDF
Chain of DNA gyrase (P20831 whole entry): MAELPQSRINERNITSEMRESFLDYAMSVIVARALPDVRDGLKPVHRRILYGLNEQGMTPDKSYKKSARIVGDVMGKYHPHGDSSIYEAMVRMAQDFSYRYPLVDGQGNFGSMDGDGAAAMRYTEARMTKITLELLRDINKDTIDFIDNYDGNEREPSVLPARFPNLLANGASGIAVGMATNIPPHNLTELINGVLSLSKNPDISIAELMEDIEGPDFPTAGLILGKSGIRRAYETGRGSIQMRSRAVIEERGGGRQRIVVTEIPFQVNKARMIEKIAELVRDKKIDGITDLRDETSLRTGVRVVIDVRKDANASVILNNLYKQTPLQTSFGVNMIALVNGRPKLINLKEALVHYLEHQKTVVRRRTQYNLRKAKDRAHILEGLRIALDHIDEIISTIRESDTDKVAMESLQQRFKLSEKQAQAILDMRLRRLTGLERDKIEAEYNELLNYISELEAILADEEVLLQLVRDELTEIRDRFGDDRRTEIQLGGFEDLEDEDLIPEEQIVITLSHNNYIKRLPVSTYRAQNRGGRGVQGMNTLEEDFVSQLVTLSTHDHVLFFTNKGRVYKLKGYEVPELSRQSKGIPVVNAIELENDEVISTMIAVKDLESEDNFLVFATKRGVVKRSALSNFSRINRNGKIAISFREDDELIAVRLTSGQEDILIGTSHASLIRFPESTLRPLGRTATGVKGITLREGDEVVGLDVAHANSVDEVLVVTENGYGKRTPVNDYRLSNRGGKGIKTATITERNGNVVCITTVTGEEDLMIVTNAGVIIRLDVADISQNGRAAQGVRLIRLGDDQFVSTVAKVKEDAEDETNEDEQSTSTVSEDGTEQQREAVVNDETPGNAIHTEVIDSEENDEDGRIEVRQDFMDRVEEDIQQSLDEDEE

COc1cc2c(cc1OCCCC(=O)Nc1cc(C(=O)Nc3ccc4sc(C(=O)N(C)C)cc4c3)n(C)c1)N=C[C@@H]1CCCN1C2=O
Ratio (Klebsiella pneumoniae [1]): 4 | MIC (Acinetobacter baumannii [2]): 0.5 to 1 µg/mL (≈ 0.761 to 1.52 µM) | MIC (Enterococcus faecalis): 0.03 µg/mL (≈ 0.0457 µM) | MIC (Staphylococcus aureus [3]): 0.03 µg/mL (≈ 0.0457 µM) | MIC (Staphylococcus aureus [4]): 0.06 µg/mL (≈ 0.0914 µM) | MIC (Klebsiella pneumoniae [5]): 0.25 to 1 µg/mL (≈ 0.381 to 1.52 µM) | MIC (Klebsiella pneumoniae [6]): 1 µg/mL (≈ 1.52 µM) | MIC (Klebsiella pneumoniae [7]): 2 µg/mL (≈ 3.05 µM) | MIC (Escherichia coli [8]): 0.5 µg/mL (≈ 0.761 µM) | MIC (Escherichia coli [9]): 0.5 µg/mL (≈ 0.761 µM) | MIC (Escherichia coli [10]): 0.5 µg/mL (≈ 0.761 µM) | MIC (Escherichia coli [11]): 1 µg/mL (≈ 1.52 µM) | MIC (Escherichia coli [12]): 0.5 µg/mL (≈ 0.761 µM) | MIC (Escherichia coli [13]): 0.5 µg/mL (≈ 0.761 µM) | MIC (Burkholderia multivorans [14]): 1 µg/mL (≈ 1.52 µM) | MIC (Burkholderia multivorans [15]): 2 µg/mL (≈ 3.05 µM) | MIC [16]: 2 µg/mL (≈ 3.05 µM) | MIC [17]: 1 to 2 µg/mL (≈ 1.52 to 3.05 µM) | MIC (Klebsiella pneumoniae [18]): 2 µg/mL | MIC (Klebsiella pneumoniae [19]): 0.06 to 0.5 µg/mL | MIC (Klebsiella pneumoniae [20]): 0.5 µg/mL | MIC (Klebsiella pneumoniae [21]): 2 µg/mL | MIC (Klebsiella pneumoniae [22]): 0.25 µg/mL | MIC (Acinetobacter baumannii [23]): 0.25 µg/mL | MIC (Acinetobacter baumannii [24]): 0.25 µg/mL | MIC (Acinetobacter baumannii [25]): 0.25 µg/mL | MIC (Pseudomonas aeruginosa [26]): 2 µg/mL | MIC (Pseudomonas aeruginosa [27]): 2 to 16 µg/mL | Ratio [28]: > 8 | Ratio (Klebsiella pneumoniae [29]): 4 | Ratio (Pseudomonas aeruginosa [30]): >=4 - 16 | fold change (FC) (DNA [31]): 3 to 4 | fold change (FC) (DNA [32]): 3 to 4 | viability at 24 h, 20 µM [33]: > 85% | selectivity ratio [34]: 10 | selectivity ratio [35]: 100 | selectivity ratio [36]: 100 | selectivity ratio [37]: 100 | IC50 (DNA gyrase; read-out: IC50 (converted)): 4.81 µM | fold change (FC) [38]: 8 to 10 | MIC (Klebsiella pneumoniae [39]): 16 to 32 µg/mL (≈ 24.4 to 48.7 µM) | MIC (Klebsiella pneumoniae [40]): 16 to 32 µg/mL (≈ 24.4 to 48.7 µM)

COc1cc2c(cc1OCCCC(=O)Nc1cc(C(=O)Nc3ccc4oc(C(=O)N5CCSCC5)cc4c3)n(C)c1)N=C[C@@H]1CCCN1C2=O
Ratio (Klebsiella pneumoniae [1]): 4 | MIC (Acinetobacter baumannii [2]): 2 µg/mL (≈ 2.86 µM) | MIC (Enterococcus faecalis): 0.25 µg/mL (≈ 0.358 µM) | MIC (Staphylococcus aureus [3]): 2 µg/mL (≈ 2.86 µM) | MIC (Staphylococcus aureus [4]): 2 µg/mL (≈ 2.86 µM) | MIC (Klebsiella pneumoniae [5]): 1 µg/mL (≈ 1.43 µM) | MIC (Klebsiella pneumoniae [6]): 4 µg/mL (≈ 5.72 µM) | MIC (Klebsiella pneumoniae [7]): 4 µg/mL (≈ 5.72 µM) | MIC (Escherichia coli [8]): 1 µg/mL (≈ 1.43 µM) | MIC (Escherichia coli [9]): 4 µg/mL (≈ 5.72 µM) | MIC (Escherichia coli [10]): 1 µg/mL (≈ 1.43 µM) | MIC (Escherichia coli [11]): 2 µg/mL (≈ 2.86 µM) | MIC (Escherichia coli [12]): 1 µg/mL (≈ 1.43 µM) | MIC (Escherichia coli [13]): 2 µg/mL (≈ 2.86 µM) | MIC (Burkholderia multivorans [14]): 16 µg/mL (≈ 22.9 µM) | MIC (Burkholderia multivorans [15]): > 32 µg/mL | MIC [16]: 8 µg/mL (≈ 11.4 µM) | MIC [17]: 16 µg/mL (≈ 22.9 µM) | MIC (Klebsiella pneumoniae [18]): > 32 µg/mL | MIC (Klebsiella pneumoniae [19]): 0.12 to 1 µg/mL | MIC (Klebsiella pneumoniae [20]): 8 µg/mL | MIC (Klebsiella pneumoniae [21]): 2 µg/mL | MIC (Klebsiella pneumoniae [22]): 4 µg/mL | MIC (Acinetobacter baumannii [23]): 2 µg/mL | MIC (Acinetobacter baumannii [24]): 2 µg/mL | MIC (Acinetobacter baumannii [25]): 2 µg/mL | MIC (Pseudomonas aeruginosa [26]): 32 µg/mL | MIC (Pseudomonas aeruginosa [27]): 0.25 to 8 µg/mL | Ratio [28]: > 8 | Ratio (Klebsiella pneumoniae [29]): 4 | Ratio (Pseudomonas aeruginosa [30]): >=8 - 64 | fold change (FC) (DNA [31]): 3 to 4 | fold change (FC) (DNA [32]): 3 to 4 | viability at 24 h, 20 µM [33]: > 85% | selectivity ratio [34]: 10 | selectivity ratio [35]: 100 | selectivity ratio [36]: 100 | selectivity ratio [37]: 100 | IC50 (DNA gyrase): Nd(Insoluble) | fold change (FC) [38]: 8 to 10 | MIC (Klebsiella pneumoniae [39]): 32 µg/mL (≈ 45.8 µM) | MIC (Klebsiella pneumoniae [40]): > 128 µg/mL
